Measurements published in PMC8371461 (Frontiers in Pharmacology, 2021).

Key:
[1] = target: T1, ABL1(Y253F)-phosphorylated (Homo sapiens, UniProt P00519, Y253F); test: kinome scan; format: binding; details: 10 µM
T1 construct: purchased DiscoverX (KINOMEscan)

PRKCQ = target: T2, PRKCQ (Homo sapiens, UniProt Q04759); test: kinome scan; format: binding; details: 10 µM
T2 construct: purchased DiscoverX (KINOMEscan)

GCN2(Kin.Dom.2S808G) = target: T3, GCN2(Kin.Dom.2S808G) (Homo sapiens, UniProt Q9P2K8, S808G); test: kinome scan; format: binding; details: 10 µM
T3 construct: GCN2(Kin.Dom.2S808G); purchased DiscoverX (KINOMEscan)

ERBB4 = target: T4, ERBB4 (Homo sapiens, UniProt Q15303); test: kinome scan; format: binding; details: 10 µM
T4 construct: purchased DiscoverX (KINOMEscan)

EPHA4 = target: T5, EPHA4 (Homo sapiens, UniProt P54764); test: kinome scan; format: binding; details: 10 µM
T5 construct: purchased DiscoverX (KINOMEscan)

BRSK2 = target: T6, BRSK2 (Homo sapiens, UniProt Q8IWQ3); test: kinome scan; format: binding; details: 10 µM
T6 construct: purchased DiscoverX (KINOMEscan)

CLK4 = target: T7, CLK4 (Homo sapiens, UniProt Q9HAZ1); test: kinome scan; format: binding; details: 10 µM
T7 construct: purchased DiscoverX (KINOMEscan)

MST1 = target: T8, MST1 (Homo sapiens, UniProt Q13043); test: kinome scan; format: binding; details: 10 µM
T8 construct: purchased DiscoverX (KINOMEscan)

FGFR2 = target: T9, FGFR2 (Homo sapiens, UniProt P21802); test: kinome scan; format: binding; details: 10 µM
T9 construct: purchased DiscoverX (KINOMEscan)

TRPM6 = target: T10, TRPM6 (Homo sapiens, UniProt Q9BX84); test: kinome scan; format: binding; details: 10 µM
T10 construct: purchased DiscoverX (KINOMEscan)

NDR2 = target: T11, NDR2 (Homo sapiens, UniProt Q9Y2H1); test: kinome scan; format: binding; details: 10 µM
T11 construct: purchased DiscoverX (KINOMEscan)

PHKG2 = target: T12, PHKG2 (Homo sapiens, UniProt P15735); test: kinome scan; format: binding; details: 10 µM
T12 construct: purchased DiscoverX (KINOMEscan)

CIT = target: T13, CIT (Homo sapiens, UniProt O14578); test: kinome scan; format: binding; details: 10 µM
T13 construct: purchased DiscoverX (KINOMEscan)

FLT3(D835H) = target: T14, FLT3(D835H) (Homo sapiens, UniProt P36888, D835H); test: kinome scan; format: binding; details: 10 µM
T14 construct: purchased DiscoverX (KINOMEscan)

MRCKA = target: T15, MRCKA (Homo sapiens, UniProt Q5VT25); test: kinome scan; format: binding; details: 10 µM
T15 construct: purchased DiscoverX (KINOMEscan)

PIK3CD = target: T16, PIK3CD (Homo sapiens, UniProt O00329); test: kinome scan; format: binding; details: 10 µM
T16 construct: purchased DiscoverX (KINOMEscan)

EGFR(G719C) = target: T17, EGFR(G719C) (Homo sapiens, UniProt P00533, G719C); test: kinome scan; format: binding; details: 10 µM
T17 construct: purchased DiscoverX (KINOMEscan)

LATS2 = target: T18, LATS2 (Homo sapiens, UniProt Q9NRM7); test: kinome scan; format: binding; details: 10 µM
T18 construct: purchased DiscoverX (KINOMEscan)

PRKCH = target: T19, PRKCH (Homo sapiens, UniProt P24723); test: kinome scan; format: binding; details: 10 µM
T19 construct: purchased DiscoverX (KINOMEscan)

MAP3K15 = target: T20, MAP3K15 (Homo sapiens, UniProt Q6ZN16); test: kinome scan; format: binding; details: 10 µM
T20 construct: purchased DiscoverX (KINOMEscan)

[2] = tested on: Hemoglobin beta chain splicing at IVS2 705 locus; parameters: method as in CHEMBL1614204; details: reported activity, data mining; ref CHEMBL1614204; cited from earlier work
PRKD3 = target: T21, PRKD3 (Homo sapiens, UniProt O94806); test: kinome scan; format: binding; details: 10 µM
T21 construct: purchased DiscoverX (KINOMEscan)

ALK = target: T22, ALK (Homo sapiens, UniProt Q9UM73); test: kinome scan; format: binding; details: 10 µM
T22 construct: purchased DiscoverX (KINOMEscan)

TGFBR1 = target: T23, TGFBR1 (Homo sapiens, UniProt P36897); test: kinome scan; format: binding; details: 10 µM
T23 construct: purchased DiscoverX (KINOMEscan)

FAK = target: T24, FAK (Homo sapiens, UniProt Q05397); test: kinome scan; format: binding; details: 10 µM
T24 construct: purchased DiscoverX (KINOMEscan)

PAK6 = target: T25, PAK6 (Homo sapiens, UniProt Q9NQU5); test: kinome scan; format: binding; details: 10 µM
T25 construct: purchased DiscoverX (KINOMEscan)

ZAK = target: T26, ZAK (Homo sapiens, UniProt Q9NYL2); test: kinome scan; format: binding; details: 10 µM
T26 construct: purchased DiscoverX (KINOMEscan)

DCAMKL2 = target: T27, DCAMKL2 (Homo sapiens, UniProt Q8N568); test: kinome scan; format: binding; details: 10 µM
T27 construct: purchased DiscoverX (KINOMEscan)

ACVRL1 = target: T28, ACVRL1 (Homo sapiens, UniProt P37023); test: kinome scan; format: binding; details: 10 µM
T28 construct: purchased DiscoverX (KINOMEscan)

STK33 = target: T29, STK33 (Homo sapiens, UniProt Q9BYT3); test: kinome scan; format: binding; details: 10 µM
T29 construct: purchased DiscoverX (KINOMEscan)

ABL1-phosphorylated = target: T30, ABL1-phosphorylated (Homo sapiens, UniProt P00519); test: kinome scan; format: binding; details: 10 µM
T30 construct: purchased DiscoverX (KINOMEscan)

PRKR = target: T31, PRKR (Homo sapiens, UniProt P19525); test: kinome scan; format: binding; details: 10 µM
T31 construct: purchased DiscoverX (KINOMEscan)

TNK2 = target: T32, TNK2 (Homo sapiens, UniProt Q07912); test: kinome scan; format: binding; details: 10 µM
T32 construct: purchased DiscoverX (KINOMEscan)

FGFR3(G697C) = target: T33, FGFR3(G697C) (Homo sapiens, UniProt P22607, G697C); test: kinome scan; format: binding; details: 10 µM
T33 construct: purchased DiscoverX (KINOMEscan)

EGFR(L747-S752delP753S) = target: T34, EGFR(L747-S752delP753S) (Homo sapiens, UniProt P00533, DEL747-752/P753S); test: kinome scan; format: binding; details: 10 µM
T34 construct: purchased DiscoverX (KINOMEscan)

TYK2 = TYK2 (Homo sapiens, UniProt P29597); test: Kd select analysis (DiscoverX); format: binding
Procedure: Hits are identified by an ultra-sensitive quantitative PCR detecting the specific DNA tag linked to each kinase (Supplementary Figure S2). The drug is used at a concentration of 10 µM and results are expressed as the percentage of signal (kinase PCR detection) with respect to DMSO control conditions. […] Interactions between 0 and 20% of reduction were considered to be the most significant ones.

[3] = target: T35, RSK2(Kin.Dom.1-N-terminal) (Homo sapiens, UniProt P51812); test: kinome scan; format: binding; details: 10 µM
T35 construct: RSK2(Kin.Dom.1-N-terminal); purchased DiscoverX (KINOMEscan)

SGK3 = target: T36, SGK3 (Homo sapiens, UniProt Q96BR1); test: kinome scan; format: binding; details: 10 µM
T36 construct: purchased DiscoverX (KINOMEscan)

[4] = target: T37, ABL1(Q252H)-nonphosphorylated (Homo sapiens, UniProt P00519, Q252H); test: kinome scan; format: binding; details: 10 µM
T37 construct: purchased DiscoverX (KINOMEscan)

SNARK = target: T38, SNARK (Homo sapiens, UniProt Q9H093); test: kinome scan; format: binding; details: 10 µM
T38 construct: purchased DiscoverX (KINOMEscan)

KIT(D816H) = target: T39, KIT(D816H) (Homo sapiens, UniProt P10721, D816H); test: kinome scan; format: binding; details: 10 µM
T39 construct: purchased DiscoverX (KINOMEscan)

T34 sequence (P00533 with tags, fused parts or gaps DEL747-752/P753S limits assumed): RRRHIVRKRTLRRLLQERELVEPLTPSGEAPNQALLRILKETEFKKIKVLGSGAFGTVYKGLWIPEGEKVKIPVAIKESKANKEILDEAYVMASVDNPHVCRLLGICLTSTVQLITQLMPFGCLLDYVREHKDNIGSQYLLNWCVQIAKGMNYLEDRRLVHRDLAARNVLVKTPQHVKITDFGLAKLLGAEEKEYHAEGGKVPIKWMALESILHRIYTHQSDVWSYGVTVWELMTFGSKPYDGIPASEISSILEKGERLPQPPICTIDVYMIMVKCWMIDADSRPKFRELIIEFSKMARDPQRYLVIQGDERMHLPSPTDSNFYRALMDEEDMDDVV
T20 sequence (Q6ZN16 whole entry): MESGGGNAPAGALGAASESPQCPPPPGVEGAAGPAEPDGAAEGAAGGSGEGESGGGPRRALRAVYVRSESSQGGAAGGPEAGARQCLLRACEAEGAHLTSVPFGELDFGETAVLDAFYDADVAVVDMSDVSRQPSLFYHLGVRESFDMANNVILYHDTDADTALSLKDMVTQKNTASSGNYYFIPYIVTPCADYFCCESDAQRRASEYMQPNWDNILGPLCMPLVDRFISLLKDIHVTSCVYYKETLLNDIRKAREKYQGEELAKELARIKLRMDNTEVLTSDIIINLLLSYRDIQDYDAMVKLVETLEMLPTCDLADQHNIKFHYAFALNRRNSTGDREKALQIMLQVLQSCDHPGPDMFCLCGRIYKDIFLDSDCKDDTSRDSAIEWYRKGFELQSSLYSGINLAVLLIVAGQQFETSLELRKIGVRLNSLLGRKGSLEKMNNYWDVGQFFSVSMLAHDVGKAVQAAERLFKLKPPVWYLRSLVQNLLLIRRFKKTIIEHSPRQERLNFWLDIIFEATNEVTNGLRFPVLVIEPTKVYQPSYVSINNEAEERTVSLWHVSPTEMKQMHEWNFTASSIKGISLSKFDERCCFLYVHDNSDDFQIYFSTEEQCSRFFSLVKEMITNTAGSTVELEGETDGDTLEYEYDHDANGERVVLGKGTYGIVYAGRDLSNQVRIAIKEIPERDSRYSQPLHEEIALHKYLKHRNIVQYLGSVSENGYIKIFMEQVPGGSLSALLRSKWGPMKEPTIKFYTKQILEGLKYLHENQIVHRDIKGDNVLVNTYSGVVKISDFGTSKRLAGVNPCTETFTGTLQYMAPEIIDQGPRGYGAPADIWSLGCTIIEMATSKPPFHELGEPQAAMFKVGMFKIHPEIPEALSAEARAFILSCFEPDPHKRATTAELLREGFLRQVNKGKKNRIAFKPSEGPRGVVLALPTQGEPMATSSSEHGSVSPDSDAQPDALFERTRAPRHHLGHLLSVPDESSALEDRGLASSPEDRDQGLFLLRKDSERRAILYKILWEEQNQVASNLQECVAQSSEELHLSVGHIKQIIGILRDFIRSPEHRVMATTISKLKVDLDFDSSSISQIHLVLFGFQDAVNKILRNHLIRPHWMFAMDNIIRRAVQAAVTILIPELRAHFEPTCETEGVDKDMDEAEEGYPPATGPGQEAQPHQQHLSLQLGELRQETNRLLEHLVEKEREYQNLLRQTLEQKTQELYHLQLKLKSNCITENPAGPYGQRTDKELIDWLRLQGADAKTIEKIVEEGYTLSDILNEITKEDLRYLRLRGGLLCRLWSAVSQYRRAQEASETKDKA
T12 sequence (P15735 whole entry): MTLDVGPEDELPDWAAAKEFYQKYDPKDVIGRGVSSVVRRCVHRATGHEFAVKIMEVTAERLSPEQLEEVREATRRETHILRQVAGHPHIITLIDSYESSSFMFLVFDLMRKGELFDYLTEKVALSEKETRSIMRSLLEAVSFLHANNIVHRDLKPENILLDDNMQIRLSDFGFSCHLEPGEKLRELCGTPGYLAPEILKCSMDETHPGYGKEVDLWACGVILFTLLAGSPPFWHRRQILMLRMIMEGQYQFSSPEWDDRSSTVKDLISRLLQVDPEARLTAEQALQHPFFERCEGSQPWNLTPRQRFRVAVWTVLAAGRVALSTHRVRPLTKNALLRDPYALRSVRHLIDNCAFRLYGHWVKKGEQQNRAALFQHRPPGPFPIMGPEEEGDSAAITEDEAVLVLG
T5 sequence (P54764 20-986): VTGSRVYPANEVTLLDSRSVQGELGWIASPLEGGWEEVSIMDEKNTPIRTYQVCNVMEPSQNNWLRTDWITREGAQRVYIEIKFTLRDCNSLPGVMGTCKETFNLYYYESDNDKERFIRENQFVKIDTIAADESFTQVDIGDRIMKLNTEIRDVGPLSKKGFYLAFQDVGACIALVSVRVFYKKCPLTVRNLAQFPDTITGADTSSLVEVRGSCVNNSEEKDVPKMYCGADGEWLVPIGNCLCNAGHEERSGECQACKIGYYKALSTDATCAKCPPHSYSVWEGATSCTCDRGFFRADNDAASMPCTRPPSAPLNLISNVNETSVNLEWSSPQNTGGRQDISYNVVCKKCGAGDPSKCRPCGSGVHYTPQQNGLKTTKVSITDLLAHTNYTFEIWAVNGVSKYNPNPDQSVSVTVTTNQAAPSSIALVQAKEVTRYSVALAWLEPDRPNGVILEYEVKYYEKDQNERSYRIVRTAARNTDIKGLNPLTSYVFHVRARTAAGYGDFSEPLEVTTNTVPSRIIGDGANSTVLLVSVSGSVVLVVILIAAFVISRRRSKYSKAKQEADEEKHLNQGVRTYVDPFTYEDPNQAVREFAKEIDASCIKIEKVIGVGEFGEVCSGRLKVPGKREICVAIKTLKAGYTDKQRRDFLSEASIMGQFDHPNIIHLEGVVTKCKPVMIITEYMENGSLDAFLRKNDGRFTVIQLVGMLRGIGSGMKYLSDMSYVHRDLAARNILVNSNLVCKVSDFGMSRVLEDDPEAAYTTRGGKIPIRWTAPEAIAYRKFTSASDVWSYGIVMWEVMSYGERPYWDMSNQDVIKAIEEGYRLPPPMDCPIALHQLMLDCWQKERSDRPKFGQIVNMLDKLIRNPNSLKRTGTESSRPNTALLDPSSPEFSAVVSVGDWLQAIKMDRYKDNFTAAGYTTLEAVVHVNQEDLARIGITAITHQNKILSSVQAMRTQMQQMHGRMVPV
T16 sequence (O00329 whole entry): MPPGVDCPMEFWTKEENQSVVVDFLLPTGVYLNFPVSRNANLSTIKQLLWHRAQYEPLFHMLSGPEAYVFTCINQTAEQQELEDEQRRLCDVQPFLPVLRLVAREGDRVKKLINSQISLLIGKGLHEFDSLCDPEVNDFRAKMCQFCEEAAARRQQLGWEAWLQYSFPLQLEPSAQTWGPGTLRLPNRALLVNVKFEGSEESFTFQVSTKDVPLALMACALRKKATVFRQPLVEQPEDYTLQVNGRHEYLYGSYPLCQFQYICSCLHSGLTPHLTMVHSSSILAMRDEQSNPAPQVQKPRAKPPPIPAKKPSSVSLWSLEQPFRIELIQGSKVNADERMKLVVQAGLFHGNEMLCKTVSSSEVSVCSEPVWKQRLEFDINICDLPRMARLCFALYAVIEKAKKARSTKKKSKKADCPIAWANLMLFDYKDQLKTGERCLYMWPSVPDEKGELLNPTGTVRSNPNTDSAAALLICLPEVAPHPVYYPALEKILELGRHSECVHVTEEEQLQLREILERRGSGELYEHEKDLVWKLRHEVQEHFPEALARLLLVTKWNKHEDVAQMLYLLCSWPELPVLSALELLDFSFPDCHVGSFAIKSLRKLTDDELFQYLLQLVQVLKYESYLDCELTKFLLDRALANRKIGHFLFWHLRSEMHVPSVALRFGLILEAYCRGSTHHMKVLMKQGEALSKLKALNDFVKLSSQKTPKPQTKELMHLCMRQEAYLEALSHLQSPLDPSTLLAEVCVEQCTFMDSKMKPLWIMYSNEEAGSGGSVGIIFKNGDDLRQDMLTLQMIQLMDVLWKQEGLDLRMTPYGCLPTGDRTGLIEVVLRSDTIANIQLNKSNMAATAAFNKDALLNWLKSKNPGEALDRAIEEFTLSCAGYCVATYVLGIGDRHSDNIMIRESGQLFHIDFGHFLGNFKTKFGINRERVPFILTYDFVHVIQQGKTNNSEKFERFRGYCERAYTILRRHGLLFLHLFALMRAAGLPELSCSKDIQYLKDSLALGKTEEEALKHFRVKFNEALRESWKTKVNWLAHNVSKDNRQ
T28 sequence (P37023 22-503): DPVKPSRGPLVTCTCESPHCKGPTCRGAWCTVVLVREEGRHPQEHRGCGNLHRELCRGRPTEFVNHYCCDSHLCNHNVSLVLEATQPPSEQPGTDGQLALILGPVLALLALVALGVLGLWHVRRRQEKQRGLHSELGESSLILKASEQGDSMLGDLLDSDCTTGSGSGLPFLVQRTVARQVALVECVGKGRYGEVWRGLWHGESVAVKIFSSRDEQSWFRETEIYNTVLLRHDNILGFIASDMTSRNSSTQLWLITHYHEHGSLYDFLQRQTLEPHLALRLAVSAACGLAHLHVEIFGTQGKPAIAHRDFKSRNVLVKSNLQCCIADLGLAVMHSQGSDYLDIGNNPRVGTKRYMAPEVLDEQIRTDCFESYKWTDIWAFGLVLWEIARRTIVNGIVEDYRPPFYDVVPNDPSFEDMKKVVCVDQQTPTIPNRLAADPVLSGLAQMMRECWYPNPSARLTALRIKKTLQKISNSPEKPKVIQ
T11 sequence (Q9Y2H1 whole entry): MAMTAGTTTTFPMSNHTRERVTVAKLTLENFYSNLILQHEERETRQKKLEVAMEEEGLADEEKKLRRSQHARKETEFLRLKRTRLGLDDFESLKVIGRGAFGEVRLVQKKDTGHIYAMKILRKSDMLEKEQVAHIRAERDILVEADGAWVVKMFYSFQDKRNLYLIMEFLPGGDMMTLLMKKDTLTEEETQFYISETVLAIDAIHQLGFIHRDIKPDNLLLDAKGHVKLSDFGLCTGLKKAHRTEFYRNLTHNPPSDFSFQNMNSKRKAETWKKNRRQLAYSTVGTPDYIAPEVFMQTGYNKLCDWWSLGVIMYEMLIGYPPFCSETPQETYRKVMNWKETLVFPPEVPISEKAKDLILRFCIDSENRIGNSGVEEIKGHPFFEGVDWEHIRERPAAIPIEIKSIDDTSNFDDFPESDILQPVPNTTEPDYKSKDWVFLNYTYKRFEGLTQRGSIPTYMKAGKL

Nc1ccc(N=Nc2ccccc2)c(N)n1 [phenazopyridine, 2,6-diamino-3-(phenylazo)pyridine]
kinase inhibition [1]: 90 | kinase inhibition (PRKCQ): 81 | remaining binding (% of control) (GCN2(Kin.Dom.2S808G)): 100 | kinase inhibition (ERBB4): 78 | kinase inhibition (EPHA4): 86 | kinase inhibition (BRSK2): 90 | kinase inhibition (CLK4): 72 | kinase inhibition (MST1): 88 | kinase inhibition (FGFR2): 93 | kinase inhibition (TRPM6): 100 | kinase inhibition (NDR2): 100 | kinase inhibition (PHKG2): 100 | kinase inhibition (CIT): 72 | remaining binding (% of control) (FLT3(D835H)): 81 | kinase inhibition (MRCKA): 99 | kinase inhibition (PIK3CD): 78 | kinase inhibition (EGFR(G719C)): 80 | kinase inhibition (LATS2): 100 | kinase inhibition (PRKCH): 78 | kinase inhibition (MAP3K15): 94 | Concentration [2]: 20 µM | kinase inhibition (PRKD3): 100 | kinase inhibition (ALK): 89 | kinase inhibition (TGFBR1): 100 | kinase inhibition (FAK): 96 | kinase inhibition (PAK6): 100 | kinase inhibition (ZAK): 100 | kinase inhibition (DCAMKL2): 89 | kinase inhibition (ACVRL1): 71 | kinase inhibition (STK33): 100 | kinase inhibition (ABL1-phosphorylated): 67 | kinase inhibition (PRKR): 86 | kinase inhibition (TNK2): 100 | kinase inhibition (FGFR3(G697C)): 100 | kinase inhibition (EGFR(L747-S752delP753S)): 73 | Kd (TYK2): 26 µM | kinase inhibition [3]: 100 | kinase inhibition (SGK3): 100 | kinase inhibition [4]: 90 | kinase inhibition (SNARK): 87 | kinase inhibition (KIT(D816H)): 85
